Data on 26 molecules can be found in patent publication US11584747B2, “Substituted pyridopyrimidinonyl compounds useful as T cell activators” (BRISTOL-MYERS SQUIBB COMPANY, priority 2019, dated 2023).

Structures are written as SMILES. Where two headings read alike, the source gives them in different places.

In one assay the target is human DGKα (Homo sapiens (Human), UniProt P23743). The assay is described as follows: DGKα ADPGLO assay (detergent/lipid micelle substrate). Type of assay: biochemical. Here is the method: DGK Alpha ADPGLO (Truncated) IC50 (uM)
The detergent/lipid micelle was prepared by combining 15 g phosphatidylserine (Avanti 840035P) and 1 g diacylglycerol (8008110) and dissolving into 150 mL chloroform in a 2 L round bottom flask. Chloroform was removed under high vacuum by rotary evaporation. […] The lipid/detergent solution was split into 5 mL aliquots and stored at −80° C.
On the technique in general: ADP-Glo first removes unused ATP, then detects ADP through luciferase.

A further assay concerns the target human DGKζ (Homo sapiens (Human), UniProt Q13574). The assay is described as follows: DGKζ LIPGLO assay (extruded liposome substrate, ADP-Glo luminescence). The class given is biochemical.
The subject of assay [1] is human venous whole blood (IFN-γ). The assay is described as follows: Human whole blood IFN-γ assay. The class given is cell-based. As to the method:
Human venous whole blood (22.5 μL per well), obtained from healthy donors, was pre-treated with compounds for one hour at 37° C. in a humidified 95% air/5% CO2 incubator. The blood was stimulated with 2.5 μL anti-human CD3 and anti-CD28 mAb at a final concentration of 1 μg/mL each for 24 hours at 37° C. IFN-γ in the supernatants was measured using AlphLISA kit (Cat #AL217).

Setting [2] is: truncated DGK alpha, read-out: DGK alpha ADPGLO (Truncated) IC50.
Where [3] appears, read: liposome assay, read-out: DGK zeta LIPGLO IC50.
The mark [4] stands for this setting: whole blood, normalized to 3 μM reference compound as 100% activation, read-out: IFN-γ Whole Blood Normalized EC50.
Where [5] appears, read: ADPGLO assay, read-out: DGK alpha ADPGLO IC50.
Setting [6] is: liposome (LIPGLO) assay, read-out: DGK zeta (liposome assay) IC50.
The mark [7] stands for this setting: Homo sapiens, 24 h, human whole blood, anti-CD3 plus anti-CD28 stimulation, 24 hours, read-out: IFN-γ Whole Blood EC50.
[8] abbreviates: Homo sapiens, whole blood, normalized to 3 μM reference compound as 100% activation, read-out: IFN-γ Whole Blood Normalized EC50.

In general, IC50 refers to the concentration at which inhibition is half-maximal. The term EC50 denotes the concentration at which the effect is half-maximal.

Chain of human DGKζ (Q13574 other isoform, or with tags, fused parts or gaps): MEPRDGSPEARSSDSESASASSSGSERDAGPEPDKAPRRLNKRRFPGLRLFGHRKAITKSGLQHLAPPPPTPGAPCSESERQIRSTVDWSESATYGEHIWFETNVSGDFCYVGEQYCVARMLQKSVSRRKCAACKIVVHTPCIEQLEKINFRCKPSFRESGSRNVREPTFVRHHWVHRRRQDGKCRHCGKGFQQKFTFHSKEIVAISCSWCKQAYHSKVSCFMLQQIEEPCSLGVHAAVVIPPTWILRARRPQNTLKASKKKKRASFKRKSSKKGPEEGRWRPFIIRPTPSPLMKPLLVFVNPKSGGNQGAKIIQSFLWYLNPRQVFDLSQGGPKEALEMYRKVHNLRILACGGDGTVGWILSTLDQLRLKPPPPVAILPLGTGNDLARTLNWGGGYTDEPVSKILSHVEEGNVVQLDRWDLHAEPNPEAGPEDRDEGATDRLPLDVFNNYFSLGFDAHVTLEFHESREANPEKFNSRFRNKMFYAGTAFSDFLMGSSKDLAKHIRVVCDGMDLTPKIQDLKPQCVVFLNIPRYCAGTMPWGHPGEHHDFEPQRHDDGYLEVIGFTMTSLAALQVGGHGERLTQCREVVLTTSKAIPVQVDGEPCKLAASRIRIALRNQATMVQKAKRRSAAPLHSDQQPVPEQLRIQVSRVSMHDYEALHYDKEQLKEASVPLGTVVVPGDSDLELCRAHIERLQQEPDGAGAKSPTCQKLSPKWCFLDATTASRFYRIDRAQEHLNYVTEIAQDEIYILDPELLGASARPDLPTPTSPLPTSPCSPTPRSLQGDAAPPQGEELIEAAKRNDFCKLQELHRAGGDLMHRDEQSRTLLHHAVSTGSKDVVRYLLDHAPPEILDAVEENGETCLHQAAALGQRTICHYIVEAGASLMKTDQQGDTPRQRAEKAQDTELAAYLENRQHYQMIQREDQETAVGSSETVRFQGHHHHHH
Chain of human DGKα (P23743 whole entry, looked up, the tested form may be a part): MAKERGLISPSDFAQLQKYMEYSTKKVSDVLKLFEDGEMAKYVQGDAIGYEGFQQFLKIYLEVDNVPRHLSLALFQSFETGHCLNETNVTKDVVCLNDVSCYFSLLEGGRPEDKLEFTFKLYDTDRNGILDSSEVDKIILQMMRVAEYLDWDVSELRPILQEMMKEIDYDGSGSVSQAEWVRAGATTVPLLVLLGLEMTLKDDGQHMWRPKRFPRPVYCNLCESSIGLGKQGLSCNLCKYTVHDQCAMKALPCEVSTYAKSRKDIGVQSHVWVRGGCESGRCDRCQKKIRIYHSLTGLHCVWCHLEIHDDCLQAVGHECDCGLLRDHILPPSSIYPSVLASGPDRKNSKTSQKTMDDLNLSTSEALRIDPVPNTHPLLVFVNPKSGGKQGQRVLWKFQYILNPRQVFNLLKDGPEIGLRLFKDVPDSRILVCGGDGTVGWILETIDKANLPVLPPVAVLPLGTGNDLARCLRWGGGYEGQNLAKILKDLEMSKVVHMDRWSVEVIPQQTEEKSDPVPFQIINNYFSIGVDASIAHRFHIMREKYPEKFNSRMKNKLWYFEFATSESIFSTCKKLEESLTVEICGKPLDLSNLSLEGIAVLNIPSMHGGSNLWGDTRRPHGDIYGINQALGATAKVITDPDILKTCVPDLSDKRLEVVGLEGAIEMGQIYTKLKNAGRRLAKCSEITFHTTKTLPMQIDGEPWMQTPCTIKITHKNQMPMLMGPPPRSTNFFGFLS

As for `CC[C@@H]1CN(c2nc(=O)n(C)c3ccc(C#N)nc23)[C@@H](CC)CN1CC1CCC(F)(F)CC1` [Example 269, 4-((2S,5R)-4-((4,4-difluorocyclohexyl)methyl)-2,5-diethylpiperazin-1-yl)-1-methyl-2-oxo-1,2-dihydropyrido[3,2-d]pyrimidine-6-carbonitrile], the values for the IC50 at human DGKα (setting [2]) and on human DGKζ (setting [3]) were 580 nM and 260 nM, respectively.

With `CCCC(c1ccc(C(F)(F)F)cc1)N1C[C@H](CC)N(c2nc(=O)n(C)c3ccc(C#N)nc23)C[C@H]1CC` (stereo partly drawn) [Example 244, 4-((2S,5R)-2,5-Diethyl-4-(1-(4-(trifluoromethyl)phenyl)butyl)piperazin-1-yl)-1-methyl-2-oxo-1,2-dihydropyrido[3,2-d]pyrimidine-6-carbonitrile], the EC50 in assay [1] (setting [4]) was 13.3 µM.

Take `CCC(C1CC1)N1C[C@H](C)N(c2nc(=O)n(C)c3ccc(C#N)nc23)C[C@H]1C` (stereo partly drawn) [Example 454, 4-((2S,5R)-4-(1-cyclopropylpropyl)-2,5-dimethylpiperazin-1-yl)-1-methyl-2-oxo-1,2-dihydropyrido[3,2-d]pyrimidine-6-carbonitrile]: the IC50 stood at 14200 nM on human DGKα (setting [5]) and 28800 nM at human DGKζ (setting [6]).

In the case of `CCC[C@@H]1CN(c2nc(=O)n(C)c3ccc(C#N)nc23)[C@@H](C)CN1C(C)c1ccc(C(F)(F)F)cc1` (single isomer, unassigned) [Example 396], at human DGKα (setting [5]), the IC50 worked out at 920 nM.

For the molecule `CC[C@H]1CN(C(C)c2ccc(C(F)(F)F)cc2)[C@H](CC)CN1c1nc(=O)n(C)c2ccc(OC)nc12` (single isomer, unassigned) [Example 428], in assay [1] (setting [7]), the EC50 was 20 µM. At human DGKζ (setting [6]), the IC50 amounted to 125000 nM.

Turning to `CC[C@H]1CN(C(C)c2ccc(CN3CCC(F)(F)CC3)cc2)[C@H](CC)CN1c1nc(=O)n(C)c2ccc(C#N)nc12` (stereo partly drawn) [Example 277, 4-((2S,5R)-4-(1-(4-((4,4-difluoropiperidin-1-yl)methyl)phenyl)ethyl)-2,5-diethylpiperazin-1-yl)-1-methyl-2-oxo-1,2-dihydropyrido[3,2-d]pyrimidine-6-carbonitrile], the concentration for half-maximal inhibition (IC50) at human DGKα (setting [2]) worked out at 160 nM; on human DGKζ (setting [3]), 18 nM.

As to `CCC(C1CC1)N1C[C@H](C)N(c2nc(=O)n(C)c3ccc(C#N)nc23)C[C@H]1C` (stereo partly drawn) [Example 453, 4-((2S,5R)-4-(1-cyclopropylpropyl)-2,5-dimethylpiperazin-1-yl)-1-methyl-2-oxo-1,2-dihydropyrido[3,2-d]pyrimidine-6-carbonitrile], the IC50 at human DGKα (setting [5]) was determined as 215000 nM; at human DGKζ (setting [6]) it was 79400 nM.

Take `CCOc1ccc2c(n1)c(N1C[C@@H](CC)N(C(CC)c3ccc(C(F)(F)F)cc3)C[C@@H]1CC)nc(=O)n2C` (stereo partly drawn) [Example 438, 4-((2S,5R)-2,5-diethyl-4-(1-(4-(trifluoromethyl)phenyl)propyl)piperazin-1-yl)-6-ethoxy-1-methylpyrido[3,2-d]pyrimidin-2(1H)-one]: the IC50 at human DGKα (setting [5]) amounted to 175000 nM; at human DGKζ (setting [6]) it was 250000 nM.

For `CC[C@@H]1CN(c2nc(=O)n(C)c3ccc(C(F)F)nc23)[C@@H](C)CN1C(C)c1ccc(C(F)(F)F)cc1` (stereo partly drawn) [Example 442, 6-(difluoromethyl)-4-((2S,5R)-5-ethyl-2-methyl-4-(1-(4-(trifluoromethyl)phenyl)ethyl)piperazin-1-yl)-1-methylpyrido[3,2-d]pyrimidin-2(1H)-one], the IC50 was 280 nM at human DGKα (setting [5]) and 910 nM on human DGKζ (setting [6]).

Take `CC[C@@H]1CN(c2nc(=O)[nH]c3ccc(C#N)nc23)[C@@H](C)CN1C(C)c1ccc(C(F)(F)F)cc1` (single isomer, unassigned) [Example 413]: the IC50 came to 440 nM at human DGKα (setting [5]) and 750 nM at human DGKζ (setting [6]).

Regarding `CC[C@H]1CN(C(C)c2ccc(CN3CCC(O)CC3)cc2)[C@H](CC)CN1c1nc(=O)n(C)c2ccc(C#N)nc12` (stereo partly drawn) [Example 286, 4-((2S,5R)-2,5-diethyl-4-(1-(4-((4-hydroxypiperidin-1-yl)methyl)phenyl)ethyl)piperazin-1-yl)-1-methyl-2-oxo-1,2-dihydropyrido[3,2-d]pyrimidine-6-carbonitrile], the values for the IC50 at human DGKα (setting [2]) and on human DGKζ (setting [3]) were 36200 nM and 125000 nM, respectively.

In the case of `CC[C@H]1CN(C(C)c2ccc(C(F)(F)F)cc2)[C@H](CC)CN1c1nc(=O)n(C)c2ccc(OC)nc12` (single isomer, unassigned) [Example 427], the results for the IC50 on human DGKα (setting [5]) and at human DGKζ (setting [6]) were 460 nM and 4450 nM, respectively.

Consider `CCC(c1ccc(Br)cc1)N1C[C@H](C)N(c2nc(=O)n(C)c3ccc(C#N)nc23)C[C@H]1CC` (stereo partly drawn) [Example 322, 4-((2 S,5R)-4-(1-(4-bromophenyl)propyl)-5-ethyl-2-methylpiperazin-1-yl)-1-methyl-2-oxo-1,2-dihydropyrido[3,2-d]pyrimidine-6-carbonitrile], for which the IC50 at human DGKα (setting [5]) amounted to 7 nM; at human DGKζ (setting [6]) it was 760 nM.

Regarding `CC[C@@H]1CN(c2nc(=O)n(C)c3ccc(C#N)nc23)[C@@H](C)CN1C(c1ccc(F)cc1)c1cc(C2CC2)on1` (single isomer, unassigned) [Example 102], on human DGKζ (setting [3]), the IC50 is 94 nM.

In the case of `CC[C@@H]1CN(c2nc(=O)n(C)c3ccc(C#N)nc23)[C@@H](CC)CN1Cc1ccc(C2CC2)cc1F` [Example 242, 4-((2S,5R)-4-(4-cyclopropyl-2-fluorobenzyl)-2,5-diethylpiperazin-1-yl)-1-methyl-2-oxo-1,2-dihydropyrido[3,2-d]pyrimidine-6-carbonitrile], the IC50 at human DGKα (setting [2]) was 260 nM; on human DGKζ (setting [3]) it was 190 nM.

For `CC[C@@H]1CN(c2nc(=O)n(C)c3ccc(C#N)nc23)[C@@H](CC)CN1Cc1ccc(OCC2CC2)cc1` [Example 185, 4-((2S,5R)-4-(4-(Cyclopropylmethoxy)benzyl)-2,5-diethylpiperazin-1-yl)-1-methyl-2-oxo-1,2-dihydropyrido[3,2-d]pyrimidine-6-carbonitrile], the IC50 came to 270 nM at human DGKα (setting [2]) and 610 nM at human DGKζ (setting [3]).

Turning to `CCC(c1ccc(C2OCCO2)cc1)N1C[C@H](C)N(c2nc(=O)n(C)c3ccc(C#N)nc23)C[C@H]1CC` (stereo partly drawn) [Example 332, 4-((2S,5R)-4-(1-(4-(1,3-dioxolan-2-yl)phenyl)propyl)-5-ethyl-2-methylpiperazin-1-yl)-1-methyl-2-oxo-1,2-dihydropyrido[3,2-d]pyrimidine-6-carbonitrile], the IC50 on human DGKα (setting [5]) was found to be 74 nM; at human DGKζ (setting [6]), 720 nM.

Regarding `CCC(c1ccc(C(F)(F)F)cc1)N1C[C@H](CC)N(c2nc(=O)n(C)c3ccc(C#N)nc23)C[C@H]1CC` (single isomer, unassigned) [Example 5], on human DGKα (setting [2]), the IC50 came out at 64 nM.

Turning to `C[C@@H]1CN(c2nc(=O)n(C)c3ccc(C#N)nc23)[C@@H](C)CN1C(c1ccc(F)cc1)c1ccc(C(F)(F)F)cn1` (stereo in doubt) [Example 126], in assay [1] (setting [8]), the EC50 was found to be 0.68 µM.

Consider `CC[C@H]1CN(C(C)c2ccc(OC(F)(F)F)cc2F)[C@H](CC)CN1c1nc(=O)n(C)c2ccc(C#N)nc12` (single isomer, unassigned) [Example 39], for which the EC50 in assay [1] (setting [4]) worked out at 2.73 µM. For the same molecule, the IC50 on human DGKζ (setting [3]) was 770 nM.

As to `CC[C@@H]1CN(c2nc(=O)n(C)c3ccc(C#N)nc23)[C@@H](C)CN1C(C)c1ccc(C(F)(F)F)cc1` (single isomer, unassigned) [Example 7], the half-inhibitory concentration (IC50) on human DGKα (setting [2]) was found to be 180 nM.

In the case of `CCOc1ccc2c(n1)c(N1C[C@@H](CC)N(C(C)c3ccc(C(F)(F)F)cc3)C[C@@H]1CC)nc(=O)n2C` (stereo partly drawn) [Example 429, 4-((2S,5R)-2,5-diethyl-4-(1-(4-(trifluoromethyl)phenyl)ethyl)piperazin-1-yl)-6-ethoxy-1-methylpyrido[3,2-d]pyrimidin-2(1H)-one], in assay [1] (setting [7]), the EC50 was found to be 20 µM. In addition, on human DGKζ (setting [6]), the IC50 turned out to be 99500 nM.

Regarding `CC[C@H]1CN(C(C)c2ccc(C(F)(F)F)cc2)[C@H](CC)CN1c1nc(=O)n(C)c2ccc(OCCN(C)C)nc12` (stereo partly drawn) [Example 432, 4-((2S,5R)-2,5-diethyl-4-(1-(4-(trifluoromethyl)phenyl)ethyl)piperazin-1-yl)-6-(2-(dimethylamino)ethoxy)-1-methylpyrido[3,2-d]pyrimidin-2(1H)-one], the EC50 in assay [1] (human whole blood, anti-CD3 plus anti-CD28 stimulation, 24 hours, read-out: IFN-γ Whole Blood EC50) worked out at 20 µM. The IC50 on human DGKζ (setting [6]) was 41700 nM.

In the case of `CCOC(=O)[C@H]1C[C@@H]1Oc1ccc(C(C)N2C[C@H](CC)N(c3nc(=O)n(C)c4ccc(C#N)nc34)C[C@H]2CC)cc1` (stereo partly drawn) [Example 260, ethyl (1S,2S)-2-(4-(1-((2R,5S)-4-(6-cyano-1-methyl-2-oxo-1,2-dihydropyrido[3,2-d]pyrimidin-4-yl)-2,5-diethylpiperazin-1-yl)ethyl)phenoxy)cyclopropane-1-carboxylate], the IC50 on human DGKζ (setting [3]) was found to be 3030 nM.

On to `CC[C@H]1CN(C(C)c2ccc(N3CCCC3=O)cc2)[C@H](CC)CN1c1nc(=O)n(C)c2ccc(C#N)nc12` (stereo partly drawn) [Example 231, 4-((2S,5R)-2,5-diethyl-4-(1-(4-(2-oxopyrrolidin-1-yl)phenyl)ethyl)piperazin-1-yl)-1-methyl-2-oxo-1,2-dihydropyrido[3,2-d]pyrimidine-6-carbonitrile], for which the EC50 in assay [1] (setting [4]) turned out to be 9.74 µM.

For the molecule `CC[C@@H]1CN(c2nc(=O)n(C)c3ccc(C#N)nc23)[C@@H](C)CN1Cc1ccc2c(c1)OC(F)(F)O2` [Example 55, 4-((2S,5R)-((2,2-difluorobenzo[d][1,3]dioxol-5-yl)methyl)-5-ethyl-2-methylpiperazin-1-yl)-1-methyl-2-oxo-1,2-dihydropyrido[3,2-d]pyrimidine-6-carbonitrile], the EC50 in assay [1] (setting [8]) amounted to 0.79 µM.
